Assays:
Details in all cases: 72 h
[1] = tested on: Caco-2; assay: cell viability relative to DMSO; higher = less toxic
[2] = tested on: Calu-3; assay: as above
[3] = tested on: HepG2; assay: as above
[4] = tested on: U2OS; assay: as above
[5] = tested on: Vero E6; assay: as above
[6] = tested on: Caco-2; assay: relative viability EC50 (midpoint between 100% and the lowest measured viability); higher = less toxic
[7] = tested on: Calu-3; assay: as above
[8] = tested on: HepG2; assay: as above
[9] = tested on: U2OS; assay: as above
[10] = tested on: Vero E6; assay: as above
[11] = tested on: Caco-2; assay: drug sensitivity score (DSS) for viability; higher = more toxic; extreme values may be limits of the assay
[12] = tested on: Calu-3; assay: as above
[13] = tested on: HepG2; assay: as above
[14] = tested on: U2OS; assay: as above
[15] = tested on: Vero E6; assay: as above

| Compound | cell viability ([1]; 1 nM) | cell viability ([1]; 10 nM) | cell viability ([1]; 100 nM) | cell viability ([1]; 1000 nM) | cell viability ([1]; 10000 nM) | cell viability ([2]; 1 nM) | cell viability ([2]; 10 nM) | cell viability ([2]; 100 nM) | cell viability ([2]; 1000 nM) | cell viability ([2]; 10000 nM) | cell viability ([3]; 1 nM) | cell viability ([3]; 10 nM) | cell viability ([3]; 100 nM) | cell viability ([3]; 1000 nM) | cell viability ([3]; 10000 nM) | cell viability ([4]; 1 nM) | cell viability ([4]; 10 nM) | cell viability ([4]; 100 nM) | cell viability ([4]; 1000 nM) | cell viability ([4]; 10000 nM) | cell viability ([5]; 1 nM) | cell viability ([5]; 10 nM) | cell viability ([5]; 100 nM) | cell viability ([5]; 1000 nM) | cell viability ([5]; 10000 nM) | relative viability EC50 [6] | relative viability EC50 [7] | relative viability EC50 [8] | relative viability EC50 [9] | relative viability EC50 [10] | drug sensitivity score [11] | drug sensitivity score [12] | drug sensitivity score [13] | drug sensitivity score [14] | drug sensitivity score [15] |
| --- | --- | --- | --- | --- | --- | --- | --- | --- | --- | --- | --- | --- | --- | --- | --- | --- | --- | --- | --- | --- | --- | --- | --- | --- | --- | --- | --- | --- | --- | --- | --- | --- | --- | --- | --- |
| CN(C)c1cccc(Oc2cnc(Nc3cccc(O)c3)nc2)c1 [SEN-1269] | 96.5% | 102% | 102% | 96.3% | 82.3% | 94.5% | 99.7% | 100% | 95.4% | 102% | 102% | 104% | 93.8% | 93% | 99.9% | 101% | 102% | 95.5% | 99.5% | 94.8% | 98% | 94.4% | 95.9% | 89.2% | 93.4% | > 10 µM | > 10 µM | > 10 µM | > 10 µM | > 10 µM | 0.9 | 0 | 0 | 0 | 0 |
| FC(F)(F)c1cccc(-c2noc(-c3cc(-c4ccccc4)c(C(F)(F)F)s3)n2)c1 [SEW-2871] | 103% | 104% | 102% | 99.8% | 108% | 93.2% | 91.1% | 99.9% | 93.3% | 98.5% | 102% | 103% | 93.9% | 100% | 99% | 93.7% | 99.1% | 96% | 102% | 102% | 101% | 98% | 97.4% | 90.7% | 110% | > 10 µM | > 10 µM | > 10 µM | > 10 µM | > 10 µM | 0 | 0 | 0 | 0 | 0 |
| N#Cc1ccc(C2CCCc3cncn32)cc1 (stereo not given) [fadrozole] | 77.9% | 87.4% | 89.6% | 92.6% | 82.3% | 91.1% | 103% | 96.6% | 98% | 95.3% | 96.9% | 100% | 91.6% | 103% | 96.2% | 96.2% | 91.4% | 96.4% | 93.4% | 97.4% | 95.4% | 95.6% | 89.1% | 94.9% | 95.2% | > 10 µM | > 10 µM | > 10 µM | > 10 µM | > 10 µM | 0 | 0 | 0 | 0 | 0 |
| CCN(Cc1ccc(Cl)nc1)/C(=C/[N+](=O)[O-])NC [nitenpyram] | 95.8% | 100% | 95% | 97.5% | 98.3% | 101% | 94% | 93.5% | 104% | 94% | 104% | 98.7% | 105% | 97.5% | 108% | 99% | 97% | 98% | 100% | 101% | 103% | 104% | 98.1% | 96.9% | 105% | > 10 µM | > 10 µM | > 10 µM | > 10 µM | > 10 µM | 0 | 0 | 0 | 0 | 0 |
| CN1C(=O)CCS(=O)(=O)C1c1ccc(Cl)cc1 (stereo not given) [chlormezanone] | 94.4% | 96.2% | 101% | 95.7% | 99.6% | 96% | 102% | 96.6% | 97.6% | 102% | 96.5% | 97.7% | 96.7% | 103% | 103% | 101% | 97.1% | 102% | 95.7% | 103% | 103% | 106% | 104% | 103% | 97.8% | > 10 µM | > 10 µM | > 10 µM | > 10 µM | > 10 µM | 0 | 0 | 0 | 0 | 0 |
| NS(=O)(=O)c1cc2c(cc1C(F)(F)F)NCNS2(=O)=O [hydroflumethiazide] | 99.5% | 99.1% | 89.7% | 98.8% | 92.2% | 97.1% | 101% | 96.7% | 103% | 105% | 104% | 103% | 114% | 99.3% | 96.8% | 102% | 101% | 95.3% | 101% | 98.2% | 105% | 92.2% | 98.5% | 97.2% | 107% | > 10 µM | > 10 µM | > 10 µM | > 10 µM | > 10 µM | 0 | 0 | 0 | 0 | 0 |
| Cc1cc(O)c(C(C)C)cc1Cl [chlorothymol] | 95.6% | 90.3% | 95.8% | 101% | 99.6% | 100% | 83.8% | 101% | 93.5% | 91.9% | 89.8% | 90.1% | 92.9% | 98.7% | 104% | 99.5% | 97.9% | 104% | 95.9% | 102% | 96.9% | 96.9% | 93.7% | 100% | 109% | > 10 µM | > 10 µM | > 10 µM | > 10 µM | > 10 µM | 0 | 0 | 0 | 0 | 0 |
| CC1(C)CCC(C)(C)c2c1cc(C(=O)Nc1cc(F)c(C(=O)O)c(F)c1)c(O)c2Cl | 105% | 94.3% | 96% | 86.9% | 85.7% | 105% | 92.8% | 89.9% | 86.5% | 85.7% | 102% | 105% | 115% | 112% | 92.7% | 100% | 96.9% | 90.7% | 97.2% | 92.7% | 95.4% | 105% | 105% | 94.2% | 95.5% | > 10 µM | > 10 µM | > 10 µM | > 10 µM | > 10 µM | 0.8 | 1.9 | 0 | 0 | 0 |
| CC(=O)OCC(=O)[C@@]1(OC(C)=O)[C@@H](C)C[C@H]2[C@@H]3C[C@H](F)C4=CC(=O)C=C[C@]4(C)[C@@]3(F)[C@@H](O)C[C@@]21C [diflorasone-diacetate] | 110% | 106% | 99% | 98.4% | 87.6% | 105% | 95.9% | 93.1% | 100% | 101% | 82.6% | 90.4% | 87.9% | 97.8% | 95.2% | 102% | 96.9% | 95.9% | 96.5% | 89.9% | 104% | 106% | 105% | 90.7% | 98.1% | > 10 µM | > 10 µM | > 10 µM | > 10 µM | > 10 µM | 0.2 | 0 | 0 | 0 | 0 |
| CN1CCC(c2c[nH]c3ccc(O)cc23)CC1 | 98.7% | 100% | 95.4% | 100% | 92.1% | 91.9% | 92.8% | 87.9% | 98.7% | 90.3% | 98.5% | 96% | 94.4% | 83.4% | 100% | 98% | 103% | 98.7% | 102% | 95.8% | 105% | 102% | 98.8% | 91.7% | 101% | > 10 µM | > 10 µM | > 10 µM | > 10 µM | > 10 µM | 0 | 0 | 0 | 0 | 0 |
| C[C@]12CCC(=O)C=C1CC[C@@H]1[C@@H]2[C@@H](O)C[C@@]2(C)[C@H]1CC[C@]2(O)C(=O)COC(=O)CCC(=O)O [hydrocortisone-hemisuccinate] | 104% | 98.7% | 101% | 106% | 111% | 93.6% | 100% | 101% | 101% | 95.9% | 92.9% | 113% | 108% | 96.1% | 92.1% | 103% | 101% | 104% | 100% | 99.6% | 96.3% | 96.8% | 98.3% | 93.5% | 102% | > 10 µM | > 10 µM | > 10 µM | > 10 µM | > 10 µM | 0 | 0 | 0 | 0 | 0 |
| CCOc1cc2ncc(C#N)c(Nc3ccc(OCc4ccccn4)c(Cl)c3)c2cc1NC(=O)/C=C/CN(C)C [neratinib] | 98.7% | 93.4% | 85.1% | 54.7% | 35% | 93.4% | 69.6% | 43.9% | 34.9% | 33.7% | 111% | 97.3% | 88.2% | 77.6% | 17.8% | 93.6% | 96.7% | 96.7% | 88% | 75.7% | 104% | 102% | 90.9% | 64.1% | 17.5% | 0.365 µM | 0.0124 µM | 1.59 µM | > 10 µM | 1.14 µM | 10.3 | 22.8 | 7.5 | 1.8 | 8.7 |
| COc1ccccc1N1CCN(CC(O)COc2cc(OC)c(OC)c(OC)c2)CC1 (stereo not given) [enciprazine] | 104% | 97.9% | 89.3% | 93.8% | 99.8% | 101% | 106% | 100% | 98.1% | 105% | 98.3% | 99.9% | 91.4% | 94.2% | 96% | 94.9% | 98.2% | 95.1% | 96% | 94.9% | 100% | 101% | 101% | 99.1% | 99.4% | > 10 µM | > 10 µM | > 10 µM | > 10 µM | > 10 µM | 0 | 0 | 0 | 0 | 0 |
| CN(C)CC[C@@]1(c2ccc(Cl)cc2)Cc2ccccc2C(=O)O1 (racemic) [AC-7954-(+/-)] | 103% | 92.4% | 98.3% | 102% | 106% | 98.2% | 104% | 103% | 96.5% | 104% | 89.8% | 104% | 104% | 96.4% | 94.8% | 99% | 94.9% | 99.4% | 105% | 102% | 91.4% | 94.8% | 88.3% | 92.8% | 100% | > 10 µM | > 10 µM | > 10 µM | > 10 µM | > 10 µM | 0 | 0 | 0 | 0 | 0 |
